Among the data in BindingDB's records for PubMed 35063895 (Tokyo Medical and Dental University, 2022) are IC50 values, retold here.

SMILES strings stand for the structures. “And” between values parts separate entries of the source, which are not always exact repeats. Equal values may be shown once. Where only a bound is given, the exact number is not on record here.

What is called IC50 is the concentration that gives 50% inhibition.

This assay in a line: CD4 mimetic activity at gp120 in HIV-1 KP-5mvcR infected in human TZM-bl cells assessed as inhibition of viral entry by measuring reduction in RLU by single round assay.
Regarding `N=C(N)NCCCCC(=O)NCCN1CCC(NC(=O)C(=O)Nc2ccc(Cl)cn2)CC1`, the IC50 is over 100 µM. For `CC1(C)CC(NC(=O)C(=O)Nc2ccc(Cl)cc2)CC(C)(C)N1` [N-(4-chlorophenyl)-N'-(2,2,6,6-tetramethylpiperidin-4-yl)-oxalamide] the value was 0.27 µM.

Regarding `N=C(N)NCCCCC(=O)NCCN1CCC(NC(=O)CNc2ccc(Cl)cn2)CC1`, the IC50 is over 100 µM. For `COCCOCCOCCOCCOCCOCCOCCOCCOCCOCCOCCOCCNC(=O)CCC(=O)N[C@@H](CCCNC(=N)N)C(=O)NCCN1CCC(NC(=O)C(=O)Nc2ccc(F)nc2)CC12CCCCC2` (stereo partly drawn) the value was over 100 µM; for `N=C(N)NCCCCC(=O)NCCN1CCC(NC(=O)C(=O)Nc2ccc(Cl)cc2)CC12CCCCC2` (stereo not drawn), 0.29 µM and 1.5 µM; for `N=C(N)NCCCCC(=O)NCCN1CCC(NC(=O)C(=O)Nc2cncc(F)c2)CC12CCCCC2` (stereo not drawn), over 100 µM. In the case of `CC1(C)CC(NC(=O)C(=O)Nc2ccc(F)nc2)CC(C)(C)N1`, the IC50 was found to be 5.1 µM.

As to `COCCOCCOCCOCCOCCOCCOCCOCCOCCOCCOCCOCCNC(=O)CCC(=O)N[C@@H](CCCNC(=N)N)C(=O)NCCN1CCC(NC(=O)C(=O)Nc2ccc(Cl)cc2)CC12CCCCC2` (stereo partly drawn), the half-inhibitory concentration (IC50) came out at 6.7 µM.
